Laboratory results as given in US11672771B2, “Beta-alethine, immune modulators, and uses thereof” (AxImmune, Inc., priority 2016, dated 2023).
Entries after “also recorded” stand apart in the source; their conditions may differ.

Columns and labels:
multiple myeloma = multiple myeloma (Benson et al., 2012); cited from earlier work
[1] = test system: CD4+ or CD8+ T cells that expressed PD-1, Lag3, or Tim3; assay: Checkpoint inhibitor expression and T cell percentages in blood 48 hours after one s.c. injection of β-alethine in Cloudman melanoma mice; assay type: in vivo, DBA mice
Protocol: It was hypothesized that β-alethine could affect checkpoint inhibitors expression in vivo in tumor bearing animals. […] As a baseline, blood from each animal was taken (“Cloudman preBLT”). Mice then were treated with one subcutaneous (s.c.) injection of 30 mg/kg β-alethine. 48 hours after receiving the s.c. injection of β-alethine, blood was taken (“Cloudman postBLT”). […]

[2] = test system: Cloudman melanoma cancer cell line; assay: Tumor size after s.c. and intratumoral β-alethine in mice with established Cloudman melanoma; assay type: in vivo, DBA mice
Protocol: At 38 days after tumor cell injection, the tumors were 17, 25 and 32 mm^2. At 38, 46, and 52 days after tumor cell injection, mice were treated with s.c. injections between the shoulder blades (distal to the tumor) of 30 mg/kg β-alethine in sterile saline (each s.c. injection of β-alethine is indicated by triangles in FIG. 2). Tumor size was monitored after each injection. […] However, the other two mice were then treated with β-alethine at 30 mg/kg intratumorally (i.t.) on day 55 post-tumor cell injection.
Further, when β-alethine was injected directly into the tumors, animals that previously had not responded or not fully responded via s.c. injection now responded, included apparent complete response.

[3] = test system: Cloudman melanoma cancer cell line; assay: Tumor growth with β-alethine, anti-PD-1 or both (concurrent or sequential) in Cloudman melanoma mice; assay type: in vivo; conditions: for tumor growth (tumor size): vs PBS, not statistically significant
Protocol: After confirming tumor growth, mice were randomized into the treatment groups listed in Table 4. n=10 mice in the Low Dose, High Dose, q14, untreated, and PBS groups; n=5 mice in PD-1 and BLT/PD-1 groups.
Tumor growth was measured 3 times a week. […] In the PBS treated group, there likely was an artificially low reading in the PBS group on day 23. A repeat reading of tumor size at day 25 confirmed the original trajectory. […] In addition, by day 25, the cancers in all these groups were growing at rates similar to the PBS or untreated control.
In order to further examine this dramatic result, long-term immunity after relapse was determined. In the mice treated with three doses of PD-1 alone at days 15, 18, and 21, tumor size increased through day 29 until the average size was almost 50 mm^2. […] At day 29, mice in the single agent anti-PD-1 treated group received a dose of 30 mg/kg β-alethine subcutaneously, and then weekly thereafter. […] Thus, in total, 9 of 10 mice in either the combination treatment group or the anti-PD-1 rescued with β-alethine group had complete regression of their tumors.

[4] = test system: monocytes expressing PD-L1; assay: Ex vivo treatment of dog white blood cells, PD-L1 on monocytes by flow cytometry; assay type: cell-based; conditions: 0-1000 uM, 24 hours incubation, autologous serum; in some of the dogs (three healthy, three with cancer)
Protocol: In this study, white blood cells and serum were isolated from three healthy dogs and three dogs with cancer. Two dogs had osteosarcoma (Cancer_1 and Cancer_2 in FIG. 5) and one dog had melanoma (Cancer_3 in FIG. 5). Isolated white blood cells were grown in culture with autologous dog serum and varying doses of β-alethine (0-1000 uM). After 24 hours of incubation with β-alethine, monocytes were isolated and were examined for PD-L1 expression using flow cytometry analysis and a canine-specific anti-PD-L1 antibody. […] Further is documents cross species activity of BA. Current human clinical trials with immune checkpoint inhibitors also include antibodies antagonistic to PD-L1. Thus, β-alethine could also be used synergistically with anti-PD-L1 therapies.

NS-1 mouse myeloma = conditions: repeated administration as monotherapy soon after inoculation with relatively low doses of tumor; cited from earlier work
Cloudman S-91 melanomas = conditions: melanomas already established; cited from earlier work
MT-1 tumor xenograft = conditions: cited from earlier work
lymphoma = conditions: single agent; cited from earlier work
[5] = in vivo; cited from earlier work
[6] = test system: human peripheral blood mononuclear cells; conditions: polarized Th1 response; cited from earlier work
[7] = Post-, 48 hours after β-alethine s.c.
[8] = Post-β-alethine, blood 48 hours after one s.c. injection of 30 mg/kg

Compound: IPH2101: anti-KIR antibody (Innate Pharma)
- anti-tumor activity (multiple myeloma): demonstrated anti-tumor activity

Compound: lirlumab: anti-KIR antibody (Innate Pharma)
- anti-tumor activity (multiple myeloma): demonstrated anti-tumor activity

Compound: NCCC(=O)NCCSSCCNC(=O)CCN [β-alethine, 3-amino-N-(2-{[2-(3-aminopropanamido)ethyl]disulfanyl}ethyl)propenamide]
- number of molecule per cell (mean fluorescent intensity MFI) on cells that continued to have checkpoint molecule expression ([1]; 48 hours after one s.c. injection of 30 mg/kg vs before): specific reduction
- percentages of CD4 and CD8 T cells expressing PD-1, Lag3, or Tim3 ([1]; FIG. 1A, 48 hours after one s.c. injection of 30 mg/kg vs before): reduced percentages
- % CD8+ of white blood cells [1, 7]: 0.9%
- CD4-Lag3, percentage of cells expressing checkpoint inhibitor [1, 7]: 2.1%
- CD4-PD1, percentage of cells expressing checkpoint inhibitor [1, 7]: 4.4%
- CD4-Tim3, percentage of cells expressing checkpoint inhibitor [1, 7]: 1.3%
- CD8-Lag3, percentage of cells expressing checkpoint inhibitor [1, 7]: 0.1%
- CD8-PD1, percentage of cells expressing checkpoint inhibitor [1, 7]: 1.2%
- CD8-Tim3, percentage of cells expressing checkpoint inhibitor [1, 7]: 0.2%
- CD4-Lag3+ checkpoint inhibitor expression [1, 8]: 55 MFI
- CD4-PD1+ checkpoint inhibitor expression [1, 8]: 153 MFI
- CD4-Tim3+ checkpoint inhibitor expression [1, 8]: 93 MFI
- CD8-Lag3+ checkpoint inhibitor expression [1, 8]: 627 MFI
- CD8-PD1+ checkpoint inhibitor expression [1, 8]: 259 MFI
- CD8-Tim3 checkpoint inhibitor expression [1, 8]: 1283 MFI
- tumor response of second mouse after intratumoral injection ([2]; 30 mg/kg i.t. on day 55 after s.c. injections, seen on day 66): complete regression of the tumor
- tumor size of remaining mouse after series of i.t. injections ([2]; 30 mg/kg i.t. on days 55, 68, 82): decrease in tumor size
- start of tumor regression in the remaining mouse ([2]; 30 mg/kg i.t. on days 55, 68, 82 after s.c. injections): ~70 day post-tumor cell injection
- complete tumor regression after s.c. injections ([2]; 30 mg/kg s.c. at days 38, 46, 52, three mice, at day 56 post-tumor cell injection): one of the mice demonstrated a complete tumor regression
- local or systemic side effects ([2]; i.t. injections of 30 mg/kg in the mouse): not associated with any perceivable local or systemic side effects
- tumor growth (tumor size) ([3]; High dose: 30 mg/kg s.c. once a week from day 15): delayed tumor growth temporarily
- tumor growth (tumor size) ([3]; Low dose: 30 ng/kg s.c. once a week from day 15): delayed tumor growth temporarily
- toxicity ([3]; low dose or high dose β-alethine alone): no obvious toxicity was observed
- percentages of monocytes expressing PD-L1 [4]: reduced the percentages of monocytes expressing PD-L1
- survival rates (NS-1 mouse myeloma): significantly increased survival rates
- percent survival (Cloudman S-91 melanomas): increase the percent survival
- effectiveness of chemotherapy for late stage breast cancer (MT-1 tumor xenograft; adjunct to chemotherapy): increase effectiveness of chemotherapy
- toxicity due to the chemotherapy (MT-1 tumor xenograft; adjunct to chemotherapy): did not increase toxicity due to the chemotherapy
- localized tumor growth (MT-1 tumor xenograft; breast cancer): effective in treating localized tumor growth
- drug related adverse events (lymphoma): no local or systemic drug related adverse events; also recorded: no drug-related adverse events
- tumor size in lymphoma patients not anergic to recall antigens pre-trial (lymphoma): reduction or stabilization in tumor sized in all patients with lymphoma who were not anergic to recall antigens pre-trial; also recorded: shrinkage or stabilization in all patients with lymphoma who were not anergic to recall antigens pre-trial
- toxicity in animals [5]: non-toxic
- IFN-γ production [6]: increased IFN-γ production
- IL-10 expression [6]: depressed IL-10 expression
- T cell activation and proliferation [6]: increased T cell activation and proliferation
